{"source": "ChEMBL document CHEMBL3576862", "about": "“Peptidic inhibitors for in vitro pentamer formation of human papillomavirus capsid protein l1” (ACS Med Chem Lett, 2015)", "key": {"Major capsid protein L1 [1]": {"target": "T1, Major capsid protein L1 (Human papillomavirus 16, UniProt P03101)", "T1 sequence (P03101 whole entry)": "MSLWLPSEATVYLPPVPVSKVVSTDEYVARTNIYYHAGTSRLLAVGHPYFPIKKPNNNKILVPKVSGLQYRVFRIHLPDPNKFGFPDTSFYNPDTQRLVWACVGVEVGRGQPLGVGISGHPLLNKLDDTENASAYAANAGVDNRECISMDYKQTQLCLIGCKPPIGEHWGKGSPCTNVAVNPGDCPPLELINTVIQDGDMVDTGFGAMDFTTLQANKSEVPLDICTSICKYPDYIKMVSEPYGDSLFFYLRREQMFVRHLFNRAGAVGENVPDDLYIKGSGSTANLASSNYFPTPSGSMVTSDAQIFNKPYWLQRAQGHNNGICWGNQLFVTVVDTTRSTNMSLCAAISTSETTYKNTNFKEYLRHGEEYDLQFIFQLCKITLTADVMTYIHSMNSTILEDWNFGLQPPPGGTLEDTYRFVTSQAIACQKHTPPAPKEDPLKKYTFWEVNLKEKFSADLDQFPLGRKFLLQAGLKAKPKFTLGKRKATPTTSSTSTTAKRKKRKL", "test": "(§1) Inhibition of pentamer formation of GST-tagged HPV16 major capsid protein L1 assessed as increased L1-m peak formation incubated with compound after overnight PPase-mediated digestion by size-exclusion chromatography"}, "[2]": {"target": "T2, Major capsid protein L1 (Human papillomavirus 16) (UniProt P03101)", "T2 sequence (whole entry)": "T1 sequence (P03101 whole entry)", "test": "Inhibition of GST-tagged HPV16 major capsid protein L1 pentamer formation at 1:100 ratio of pentamer to compound in presence of PPase by FPLC method"}, "[3]": {"target": "T2, Major capsid protein L1 (Human papillomavirus 16)", "test": "Binding affinity to GST-tagged HPV16 major capsid protein L1 pentamer formation at 1:100 ratio of pentamer to compound by CD spectroscopy method"}, "[4]": {"target": "T2, Major capsid protein L1 (Human papillomavirus 16)", "test": "as §1"}, "[5]": {"target": "T2, Major capsid protein L1 (Human papillomavirus 16)", "test": "Binding affinity to GST-tagged HPV16 major capsid protein L1 by FRET assay"}, "[6]": {"target": "T2, Major capsid protein L1 (Human papillomavirus 16)", "test": "Binding affinity to GST-tagged HPV16 major capsid protein L1 assessed as increase in thermal stability by measuring melting temperature at 1:100 ratio of pentamer to compound by UV cloud point measurement assay"}, "[7]": {"target": "T2, Major capsid protein L1 (Human papillomavirus 16)", "test": "Inhibition of GST-tagged HPV16 major capsid protein L1 pentamer assembly assessed as reduction in pentamer assembly in presence of PPase by static light scattering method"}, "[8]": {"target": "T2, Major capsid protein L1 (Human papillomavirus 16)", "test": "Inhibition of GST-tagged HPV16 major capsid protein L1 pentamer assembly assessed as reduction in pentamer assembly at 1:50 ratio of pentamer to compound in presence of PPase by static light scattering method"}, "[9]": {"target": "T2, Major capsid protein L1 (Human papillomavirus 16)", "test": "Inhibition of GST-tagged HPV16 major capsid protein L1 pentamer assembly assessed as size distribution of hydrodynamic diameter of pentamer assembly in presence of PPase by dynamic light scattering method (reference value: 14.9 nanometer)"}, "Major capsid protein L1 [10]": {"target": "T1, Major capsid protein L1", "test": "Binding affinity to GST-tagged HPV16 major capsid protein L1 using CY3-labeled compound by FRET assay"}, "[11]": {"target": "T2, Major capsid protein L1 (Human papillomavirus 16)", "test": "Inhibition of pentamer formation of GST-tagged HPV16 major capsid protein L1 assessed as increased L1-m peak formation incubated with compound after overnight PPase-mediated digestion and measured after dialysis by dynamic light scattering method"}, "[12]": {"target": "T2, Major capsid protein L1 (Human papillomavirus 16)", "test": "Inhibition of GST-tagged HPV16 major capsid protein L1 pentamer assembly assessed as size distribution of hydrodynamic diameter of pentamer assembly in presence of PPase measured after dialysis by dynamic light scattering method and transmission electron microscopy"}, "[13]": {"target": "T3, Major capsid protein L1 (human papillomavirus 58) (UniProt P26535)", "T3 sequence (whole entry)": "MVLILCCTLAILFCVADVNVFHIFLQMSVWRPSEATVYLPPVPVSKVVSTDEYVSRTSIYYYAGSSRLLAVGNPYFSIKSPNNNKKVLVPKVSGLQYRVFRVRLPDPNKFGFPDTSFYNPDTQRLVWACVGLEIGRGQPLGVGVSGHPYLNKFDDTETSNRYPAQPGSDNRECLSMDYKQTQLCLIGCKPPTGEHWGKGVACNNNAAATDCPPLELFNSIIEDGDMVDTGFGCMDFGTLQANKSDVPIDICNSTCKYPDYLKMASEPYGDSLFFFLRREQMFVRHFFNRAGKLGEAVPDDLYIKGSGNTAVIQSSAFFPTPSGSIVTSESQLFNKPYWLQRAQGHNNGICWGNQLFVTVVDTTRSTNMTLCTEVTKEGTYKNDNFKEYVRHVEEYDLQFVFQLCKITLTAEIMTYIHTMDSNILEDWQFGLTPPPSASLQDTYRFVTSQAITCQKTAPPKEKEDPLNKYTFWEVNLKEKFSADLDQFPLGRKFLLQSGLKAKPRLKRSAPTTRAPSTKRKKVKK", "test": "Inhibition of GST-tagged HPV58 major capsid protein L1 pentamer formation at 1:100 ratio of pentamer to compound in presence of PPase by FPLC method"}, "[14]": {"target": "T4, Major capsid protein L1 (human papillomavirus 18) (UniProt P06794)", "T4 sequence (whole entry)": "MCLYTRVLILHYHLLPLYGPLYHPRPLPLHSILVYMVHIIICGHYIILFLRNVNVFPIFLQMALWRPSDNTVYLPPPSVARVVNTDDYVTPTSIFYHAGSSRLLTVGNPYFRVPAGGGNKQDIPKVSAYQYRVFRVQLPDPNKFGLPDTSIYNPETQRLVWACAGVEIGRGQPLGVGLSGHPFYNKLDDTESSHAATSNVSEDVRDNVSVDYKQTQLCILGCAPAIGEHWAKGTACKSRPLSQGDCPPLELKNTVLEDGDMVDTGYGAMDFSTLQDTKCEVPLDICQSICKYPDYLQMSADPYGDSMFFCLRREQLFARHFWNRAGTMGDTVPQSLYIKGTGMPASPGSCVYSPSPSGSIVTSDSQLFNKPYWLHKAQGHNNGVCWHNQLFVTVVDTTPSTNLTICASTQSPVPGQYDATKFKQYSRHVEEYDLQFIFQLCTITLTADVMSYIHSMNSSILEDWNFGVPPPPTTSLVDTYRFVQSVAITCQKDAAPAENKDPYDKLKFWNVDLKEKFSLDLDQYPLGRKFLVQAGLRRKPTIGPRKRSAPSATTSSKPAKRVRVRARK", "test": "Inhibition of GST-tagged HPV18 major capsid protein L1 pentamer formation at 1:100 ratio of pentamer to compound in presence of PPase by FPLC method"}}, "note": "pIC50, pKd: −log10 of the molar value. Activity calls are given as the source filed them. The rule behind the calls is not given here."}
{"compound": "CC(C)C[C@H](NC(=O)CNC(=O)[C@H](C)NC(=O)[C@H](CCC(N)=O)NC(=O)[C@H](CC(C)C)NC(=O)[C@H](CC(C)C)NC(=O)[C@H](Cc1ccccc1)NC(=O)[C@H](CCCCN)NC(=O)[C@H](CCCNC(=N)N)NC(=O)CNC(=O)[C@H](CC(C)C)NC(=O)[C@@H]1CCCN1)C(=O)N[C@@H](CCCCN)C(=O)N[C@@H](C)C(=O)N[C@@H](CCCCN)C(=O)O", "values": [{"measurement": "pIC50", "setting": "Major capsid protein L1 [1]", "value": 7.32}]}
{"compound": "CC(C)C[C@H](NC(=O)[C@H](CC(C)C)NC(=O)[C@H](Cc1ccccc1)NC(=O)[C@H](CCCCN)NC(=O)[C@H](CCCNC(=N)N)NC(=O)CNC(=O)[C@H](CC(C)C)NC(=O)[C@@H]1CCCN1C(=O)[C@H](Cc1ccccc1)NC(=O)[C@H](CCC(N)=O)NC(=O)[C@H](CC(=O)O)NC(=O)[C@H](CO)NC(=O)[C@@H](N)CC(=O)O)C(=O)N[C@@H](CCC(N)=O)C(=O)O", "values": [{"measurement": "inhibition", "setting": "[2]", "value": "inactive"}]}
{"compound": "H-DLDQSPLGRKFLLQ-OH", "values": [{"measurement": "inhibition", "setting": "[2]", "value": "inactive"}]}
{"compound": "H-DLDQFPAGRKFLLQ-OH", "values": [{"measurement": "inhibition", "setting": "[2]", "value": "inactive"}, {"measurement": "Activity", "setting": "[3]", "value": "inactive"}]}
{"compound": "H-SGFLRQLGFDKLQD-OH", "values": [{"measurement": "inhibition", "setting": "[4]", "value": "inactive"}, {"measurement": "Activity", "setting": "[5]", "value": "inactive"}, {"measurement": "Activity", "setting": "[6]", "value": "inactive"}]}
{"compound": "H-DLDQFPSSSKFLLQ-OH", "values": [{"measurement": "inhibition", "setting": "[2]", "value": "inactive"}, {"measurement": "Activity", "setting": "[3]", "value": "inactive"}]}
{"compound": "H-QFPLGRKFL-OH", "values": [{"measurement": "inhibition", "setting": "[2]", "value": "Active"}]}
{"compound": "H-DLDQFPLGR-OH", "values": [{"measurement": "inhibition", "setting": "[2]", "value": "inactive"}]}
{"compound": "H-PLGRKFL-OH", "values": [{"measurement": "inhibition", "setting": "[2]", "value": "inactive"}]}
{"compound": "H-DLDQFPLGAKFLLQ-OH", "values": [{"measurement": "inhibition", "setting": "[2]", "value": "inactive"}, {"measurement": "Activity", "setting": "[3]", "value": "inactive"}]}
{"compound": "CC(C)C[C@H](NC(=O)[C@H](CC(C)C)NC(=O)[C@H](Cc1ccccc1)NC(=O)[C@H](CCCCN)NC(=O)[C@H](CCCNC(=N)N)NC(=O)CNC(=O)[C@H](CC(C)C)NC(=O)[C@@H]1CCCN1C(=O)[C@H](Cc1ccccc1)NC(=O)[C@H](CCC(N)=O)NC(=O)[C@H](CC(=O)O)NC(=O)[C@H](CC(C)C)NC(=O)[C@@H](N)CC(=O)O)C(=O)N[C@@H](CCC(N)=O)C(=O)O", "values": [{"measurement": "inhibition", "setting": "[4]", "value": "Dose-dependent effect"}, {"measurement": "pIC50", "setting": "Major capsid protein L1 [1]", "value": 7.71}, {"measurement": "inhibition", "setting": "[7]", "value": "Dose-dependent effect"}, {"measurement": "inhibition", "setting": "[8]", "value": "Active"}, {"measurement": "Activity", "setting": "[9]", "value": 9.4, "unit": "nm"}, {"measurement": "pKd", "setting": "Major capsid protein L1 [10]", "value": 6.22}, {"measurement": "Activity", "setting": "[6]", "value": "Active"}, {"measurement": "Activity", "setting": "[11]", "value": "inactive"}, {"measurement": "Activity", "setting": "[12]", "value": "inactive"}, {"measurement": "inhibition", "setting": "[13]", "value": "Active"}, {"measurement": "inhibition", "setting": "[14]", "value": "inactive"}]}
